From article PMC7619385 (ACS infectious diseases, 2025)
Where two headings read alike, the source gives them in different places.

Experiments:
LmxCLK1 [1] = biological target: T1, LmxCLK1 (Leishmania mexicana, UniProt E9AMP2); experiment: HTRF (TR-FRET) enzymatic inhibition assay; type: biochemical
T1 sequence (E9AMP2 1-422): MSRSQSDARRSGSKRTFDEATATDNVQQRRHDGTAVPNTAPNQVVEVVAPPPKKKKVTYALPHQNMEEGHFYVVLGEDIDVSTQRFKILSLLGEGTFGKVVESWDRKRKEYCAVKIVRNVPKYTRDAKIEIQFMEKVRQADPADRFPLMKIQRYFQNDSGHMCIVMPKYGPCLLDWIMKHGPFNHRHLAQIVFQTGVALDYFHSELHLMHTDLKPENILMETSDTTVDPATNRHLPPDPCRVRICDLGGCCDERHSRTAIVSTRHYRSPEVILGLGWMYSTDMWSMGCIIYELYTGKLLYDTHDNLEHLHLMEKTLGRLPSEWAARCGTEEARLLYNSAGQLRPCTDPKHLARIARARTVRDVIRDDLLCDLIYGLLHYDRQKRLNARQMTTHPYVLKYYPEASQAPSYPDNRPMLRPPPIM
Method: The enzymatic activity of full-length LmxCLK1 was monitored using a homogenous time-resolved fluorescence (HTRF)-based assay (HTRF KinEASE-STK S3 kit, Cisbio - catalog #62ST3PEC). For IC50 value determination, the data from two independent experiments performed in duplicate were fitted to the sigmoidal dose-response (variable slope) equation available in GraphPad Prism (v. 9.1.0). Detailed information for IC50 determination can be found in the Supplementary Information. […]
min at 4 °C. The supernatants were loaded onto an immobilized metal affinity chromatography (IMAC) […]
column (5 mL HisTrap FF Crude, GE Healthcare) and washed in Binding Buffer containing 30 mM imidazole.
Proteins were eluted in Binding Buffer with 300 mM imidazole. To remove the N-terminal 6xHis-tag […]
introduced during cloning (see above), proteins were incubated with TEV protease during dialysis […]
overnight at 4 °C into Gel Filtration Buffer (20 mM HEPES, 500 mM NaCl, 5% glycerol, 0.5 mM TCEP).
Recombinant proteins were further purified using reverse affinity chromatography on Ni-Sepharose […]
followed by gel filtration (Superdex 200 16/60, GE Healthcare), and concentrated using 10 kDa molecular […]
weight cut-off centrifugal concentrators (Millipore). LmxCLK1 (CQMED clone ID LmxCLK1-cb001) and […]
NLuc-LmxCLK1 (CQMED clone ID LmxCLK1-cb021) proteins were stored at -80 °C for in vitro biochemical […]
assays at 0.5 mg/mL and 0.7 mg/mL, respectively, measured by UV absorbance with a NanoDrop […]
spectrophotometer (Thermo Scientific), using the calculated molecular weight and estimated extinction […]
Purified proteins were further analyzed by LC-ESI-MS in a XEVO G2 Sx Q-ToF (Waters). Expected intact […]
masses for LmxCLK1 (CQMED clone ID LmxCLK1-cb001) and NLuc-LmxCLK1 (CQMED clone ID LmxCLK1- […]
cb021) were: 48,791.14 Da and 68,411.71 Da, respectively.
We monitored the activity of recombinantly produced full-length LmxCLK1 (CQMED clone ID LmxCLK1- […]
cb001) using a commercially-available homogenous time-resolved fluorescence (HTRF)-based assay (HTRF […]
KinEASE-STK S3 kit, Cisbio - catalog #62ST3PEC). Assay development included establishing reaction […]
parameters (optimal enzyme concentration, ATP concentration and reaction time).
(15-point, 3-fold serial dilution and a highest final assay concentration of 10 µM) prior to transfer (100 nL) […]
to a black, 384-well, round bottom, low-volume plate (Corning catalog #4514) containing a mixture of […]
LmxCLK1 and peptide substrate in kinase buffer using an automated liquid transferring system (CYBIO […]
FeliX®, Analytik Jena, Jena, Germany). […]
started by the addition of ATP and allowed to proceed for 75 min at 30 °C. Final concentrations for reaction […]
components were: 6 nM LmxCLK1, 66 µM ATP (10× KM,ATP), 1 µM peptide (STK Substrate 3-biotin, Cisbio).
All components were prepared in 1× Enzymatic Buffer (Cisbio) supplemented with 5 mM MgCl2, 1 mM […]
DTT, 0.01% Tween-20. The reaction was stopped by the addition of Detection Buffer containing EDTA, […]
Fluorescence signal was measured using a CLARIOstar microplate reader (BMG LABTECH) with excitation […]
at 330 nm, emission at 665 nm (acceptor) and 620 nm (donor), integration delay 60 μs and integration […]
time 400 μs. All reactions were done in duplicate and two independent experiments were performed.
Enzyme activity was expressed as the background-corrected HTRF ratio of the acceptor and donor […]
emission signals according to equation [1]:
(also on this page, place not known: imi dazole. Ni -Sepharose background -corrected (665/620)=3Acceptor!!"#$ −backgroundD.10,000 Downloaded from http://pubs.acs.org/aidcbc/article-supplement/3662943/pdf/id5c00610_si_001/ by guest on 07 August 2026) […]
where background is the background fluorescence obtained in the absence of enzyme (blank).
To determine IC50 values, the background-corrected HTRF ratio was plotted as a function of test

LmxCLK1 [2] = biological target: T1, LmxCLK1; experiment: biochemical; type: binding
NLuc::LmxCLK1 = NLuc::LmxCLK1 (Leishmania mexicana, UniProt E9AMP2); experiment: cell-based; type: cell-based; settings: for receptor occupancy at 10 µM: read-out: Target occupancy Average
In short: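 NanoBRET tracer displacement in live cells expressing NLuc-tagged CLK1, test compounds at 10 µM fixed, 1% DMSO final. Acceptor/donor emission (610/460 nm) ratio gives mBRET, converted to blank-corrected probe occupancy (%); probe KD from single-site saturation binding fits.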

[3] = purified LmxCLK1, 30-min pre-incubation, 66 µM ATP, read-out: IC50 enzymatic inhibition of LmxCLK1

Compound | IC50 (LmxCLK1 [1]; IC50 enzymatic inhibition of LmxCLK1, purified LmxCLK1, 30-min pre-incubation, 66 µM ATP) [nM] | ΔTm at 10 µM (LmxCLK1 [2]; DSF, 10 µM compound, 2 µM LmxCLK1, Run 1, read-out: ΔTm Run 1) [°C] | ΔTm at 10 µM (LmxCLK1 [2]; DSF, 10 µM compound, 2 µM LmxCLK1, Run 2, read-out: ΔTm Run 2) [°C] | ΔTm at 10 µM (LmxCLK1 [2]; DSF, 10 µM compound, 2 µM LmxCLK1, mean of two runs, read-out: ΔTm Average) [°C] | IC50 (NLuc::LmxCLK1) [nM] | receptor occupancy at 10 µM (NLuc::LmxCLK1) [%] | IC50 (LmxCLK1 [1]; [3]) [nM] | ΔTm at 10 µM (LmxCLK1 [2]; read-out: ΔTm Average) [°C] | ΔTm at 10 µM (LmxCLK1 [2]; read-out: ΔTm Run 1) [°C] | ΔTm at 10 µM (LmxCLK1 [2]; read-out: ΔTm Run 2) [°C] | IC50 (LmxCLK1 [1]; pre-incubation 0 min, read-out: Time-dependent IC50) [nM] | IC50 (LmxCLK1 [1]; pre-incubation 5 min, read-out: Time-dependent IC50) [nM] | IC50 (LmxCLK1 [1]; pre-incubation 10 min, read-out: Time-dependent IC50) [nM] | IC50 (LmxCLK1 [1]; pre-incubation 15 min, read-out: Time-dependent IC50) [nM] | IC50 (LmxCLK1 [1]; pre-incubation 30 min, read-out: Time-dependent IC50) [nM]
Cc1ccc(C(=O)Nc2ccc(CN3CCN(C)CC3)c(C(F)(F)F)c2)cc1C#Cc1cnc2[nH]ncc2c1 [GZD824] | 29.9 | 17.1 | 17.7 | 17.4 ± 0.3 | 4600 | 46.5 ± 3.2 |  |  |  |  |  |  |  |  | 
C=CC(=O)Nc1cccc(Oc2nc(Nc3ccc(N4CCN(C)CC4)cc3)ncc2Cl)c1 [WZ3146] |  |  |  |  | 13600 | 35.2 ± 3.3 | 340 | 14.3 ± 0.1 | 14.2 | 14.4 |  |  |  |  | 
C=CC(=O)Nc1cccc(Sc2nc(Nc3ccc(N4CCN(C)CC4)cc3)ncc2Cl)c1 [WZ8040] |  |  |  |  | 2900 | 60.8 ± 0.8 | 204 | 14.8 ± 0.1 | 14.7 | 15 | 1660 | 940 | 911 | 862 | 759
